As a reminder, the Km is the substrate concentration at which the rate is half of its maximum. Usually kcat stands for the number of substrate molecules converted per active site and unit of time at saturation.

Substitutions are numbered along the chain they refer to. Like-named read-outs stand apart in the source and are kept apart here.

Data set [1] addresses microsomal FAL-DH and GGAL-DH (Rattus norvegicus, UniProt P30839). Briefly: NAD+-linked FAL-DH/GGAL-DH activity of solubilized hepatic microsomes. Type of data set: biochemical. As to conditions: solubilized hepatic microsomes, NAD+-linked oxidation.
In data set [2] the target is T1, AKR1C15 (Rattus norvegicus, UniProt D3ZF77). Briefly: Reduction of isoprenyl aldehydes by AKR1C15. In kind it is biochemical. As to conditions: NADPH-linked reduction.
The test system of data set [3] is low-MW FAL-R and GGAL-R from liver. As to the kind of experiment: FAL-R/GGAL-R activity of low-MW reductase from rat liver. As to conditions: liver low-MW reductase. In kind it is biochemical.
Data set [4] addresses T2, low-MW FAL-R and GGAL-R from stomach, lung and colon (Rattus norvegicus, UniProt D3ZF77).
T2 sequence (D3ZF77 1-324): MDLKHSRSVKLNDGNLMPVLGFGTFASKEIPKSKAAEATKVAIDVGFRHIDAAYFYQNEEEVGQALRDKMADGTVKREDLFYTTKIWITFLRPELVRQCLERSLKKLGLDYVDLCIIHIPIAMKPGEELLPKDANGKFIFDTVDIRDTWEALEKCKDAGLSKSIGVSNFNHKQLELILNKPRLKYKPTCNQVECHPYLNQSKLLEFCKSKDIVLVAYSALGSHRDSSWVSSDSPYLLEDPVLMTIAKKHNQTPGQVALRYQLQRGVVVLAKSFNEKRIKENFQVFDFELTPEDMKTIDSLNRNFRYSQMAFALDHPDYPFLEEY
As to the kind of experiment: FAL-R/GGAL-R activity of low-MW reductases from rat stomach, lung and colon. Type of data set: biochemical. As to conditions: extra-hepatic enzymes (stomach, lung, colon).

The target in a further data set is T3, AKR 1A1 (Homo sapiens, UniProt P14550).
T3 sequence (P14550 1-325): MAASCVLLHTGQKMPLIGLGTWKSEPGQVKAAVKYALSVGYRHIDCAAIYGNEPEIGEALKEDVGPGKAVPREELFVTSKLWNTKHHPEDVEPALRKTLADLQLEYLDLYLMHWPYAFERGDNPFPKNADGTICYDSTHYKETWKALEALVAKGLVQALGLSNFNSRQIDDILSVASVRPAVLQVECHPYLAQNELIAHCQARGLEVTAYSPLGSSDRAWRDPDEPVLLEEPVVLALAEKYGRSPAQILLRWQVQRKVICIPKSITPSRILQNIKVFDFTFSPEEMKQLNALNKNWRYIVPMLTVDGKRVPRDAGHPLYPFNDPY
As to the kind of experiment: Kinetic constants for FAL and GGAL reduction, AKR1A1. In kind it is biochemical.

A further data set has as its target T4, AKR 1C1 (Homo sapiens, UniProt Q04828).
T4 sequence (Q04828 1-323): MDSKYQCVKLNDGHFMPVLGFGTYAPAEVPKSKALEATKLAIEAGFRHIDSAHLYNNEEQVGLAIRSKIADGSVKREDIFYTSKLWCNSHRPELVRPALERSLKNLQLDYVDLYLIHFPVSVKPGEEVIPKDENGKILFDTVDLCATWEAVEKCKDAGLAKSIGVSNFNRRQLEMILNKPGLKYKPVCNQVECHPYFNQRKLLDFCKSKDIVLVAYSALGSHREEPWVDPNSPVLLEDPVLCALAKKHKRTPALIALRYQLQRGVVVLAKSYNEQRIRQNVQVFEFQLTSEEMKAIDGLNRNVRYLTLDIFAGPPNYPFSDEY
Briefly: Kinetic constants for FAL and GGAL reduction, AKR1C1. Type of data set: biochemical.

In another data set the target is T5, AKR 1C2 (Homo sapiens, UniProt P52895).
T5 sequence (P52895 1-323): T4 sequence (Q04828 1-323) with T38V, R47H, L54V, C87S, V151M, R170H, Q172L
As to the kind of experiment: Kinetic constants for FAL and GGAL reduction, AKR1C2. In kind it is biochemical.

The next data set addresses T6, AKR 1C3 (Homo sapiens, UniProt P42330).
T6 sequence (P42330 1-323): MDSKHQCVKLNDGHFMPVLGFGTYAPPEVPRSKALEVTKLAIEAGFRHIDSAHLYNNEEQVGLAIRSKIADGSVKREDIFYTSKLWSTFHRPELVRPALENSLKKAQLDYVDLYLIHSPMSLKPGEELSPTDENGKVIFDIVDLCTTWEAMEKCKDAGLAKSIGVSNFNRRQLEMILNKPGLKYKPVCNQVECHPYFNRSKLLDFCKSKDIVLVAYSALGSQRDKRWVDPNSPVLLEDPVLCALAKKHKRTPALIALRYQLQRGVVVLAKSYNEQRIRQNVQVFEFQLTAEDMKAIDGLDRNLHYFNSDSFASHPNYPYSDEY
Briefly: Kinetic constants for FAL and GGAL reduction, AKR1C3. In kind it is biochemical. As to conditions: for Km / kcat: 0.1 M potassium phosphate pH 7.4, 0.1 mM NADPH.

Another data set addresses T7, AKR 1C4 (Homo sapiens, UniProt P17516).
T7 sequence (P17516 1-323): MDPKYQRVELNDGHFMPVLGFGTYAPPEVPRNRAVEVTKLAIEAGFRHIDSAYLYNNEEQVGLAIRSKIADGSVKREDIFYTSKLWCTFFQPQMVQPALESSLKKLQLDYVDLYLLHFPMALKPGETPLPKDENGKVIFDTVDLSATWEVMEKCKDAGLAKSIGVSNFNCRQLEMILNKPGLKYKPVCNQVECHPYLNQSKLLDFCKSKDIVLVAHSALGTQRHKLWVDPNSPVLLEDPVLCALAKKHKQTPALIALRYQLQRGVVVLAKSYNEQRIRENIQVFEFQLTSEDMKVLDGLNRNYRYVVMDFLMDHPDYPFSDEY
Briefly: Kinetic constants for FAL and GGAL reduction, AKR1C4. In kind it is biochemical. The settings on record: 0.1 M potassium phosphate pH 7.4, 0.1 mM NADPH.

The target in data set [5] is human carbonyl reductase 1 (Homo sapiens, UniProt P16152). Briefly: Reduction of FAL and GGAL by carbonyl reductase 1. In kind it is biochemical.
Data set [6] deals with dicarbonyl-xylulose reductase (Homo sapiens, UniProt Q7Z4W1). Briefly: Reduction of FAL and GGAL by dicarbonyl-xylulose reductase. In kind it is biochemical.
For data set [7], the target named is dehydrogenase/reductase (SDR family) member 4 (Homo sapiens, UniProt Q9BTZ2). As to the kind of experiment: Reduction of FAL and GGAL by dehydrogenase/reductase. Type of data set: biochemical.
The subject of the next data set is human AKR 1B1. As to conditions: cited from earlier work.
The next data set deals with human AKR 1B10. As to conditions: 0.1 M potassium phosphate pH 7.4, 0.1 mM NADPH; cited from earlier work.
The target of data set [8] is T8, purified hepatic FAL-R (AKR1C9) (Rattus norvegicus, UniProt P23457).
T8 sequence (P23457 1-322): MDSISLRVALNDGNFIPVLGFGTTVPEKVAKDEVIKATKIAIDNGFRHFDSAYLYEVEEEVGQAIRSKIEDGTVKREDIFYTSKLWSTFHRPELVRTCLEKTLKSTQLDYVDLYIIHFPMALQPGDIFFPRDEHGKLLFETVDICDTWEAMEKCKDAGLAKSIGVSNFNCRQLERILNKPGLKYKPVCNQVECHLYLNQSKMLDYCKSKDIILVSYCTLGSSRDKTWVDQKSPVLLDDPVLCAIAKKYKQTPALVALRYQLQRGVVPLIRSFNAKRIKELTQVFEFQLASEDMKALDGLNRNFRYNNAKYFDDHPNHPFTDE
As to the kind of experiment: Reductase activity of hepatic low-MW FAL-R purified to homogeneity. As to conditions: purified liver enzyme.

Data set [9] has as its target T1, AKR1C15. As to conditions: NADPH-linked reduction; reported values; cited from earlier work.
Data set [10] concerns the target FOH-DH and GGOH-DH partially purified from liver (Rattus norvegicus, UniProt P06757). In kind it is biochemical. The settings on record: pH 7.4, 2 mM NAD+; mean of three determinations.
Data set [11] deals with FOH-DH and GGOH-DH partially purified from stomach (Rattus norvegicus, UniProt P41682). In kind it is biochemical. The settings on record: pH 7.4, 2 mM NAD+; mean of three determinations.
For data set [12], the target named is FOH-DH and GGOH-DH partially purified from lung (Rattus norvegicus, UniProt P41682). Type of data set: biochemical. The settings on record: pH 7.4, 2 mM NAD+; mean of three determinations.
The target in data set [13] is FOH-DH and GGOH-DH partially purified from colon (Rattus norvegicus, UniProt P06757). In kind it is biochemical. As to conditions: pH 7.4, 2 mM NAD+; mean of three determinations.
The next data set has as its system HeLa cells. As to the kind of experiment: Metabolism of [14C] FOH to FA in HeLa cells. In kind it is cell-based.
Data set [14] has as its system gastric mucosa RGM1 cells. As to the kind of experiment: Metabolism of [14C] GGOH to GGA in RGM1 cells. In kind it is cell-based, rat. The settings on record: 1 μM [14C] GGOH.
[15] abbreviates: calculated from the specific activity with 10 μM GGAL.
The mark [16] stands for this setting: 0.1 M potassium phosphate pH 7.4, 0.1 mM NADPH.

Sequence of microsomal FAL-DH and GGAL-DH (P30839 whole entry): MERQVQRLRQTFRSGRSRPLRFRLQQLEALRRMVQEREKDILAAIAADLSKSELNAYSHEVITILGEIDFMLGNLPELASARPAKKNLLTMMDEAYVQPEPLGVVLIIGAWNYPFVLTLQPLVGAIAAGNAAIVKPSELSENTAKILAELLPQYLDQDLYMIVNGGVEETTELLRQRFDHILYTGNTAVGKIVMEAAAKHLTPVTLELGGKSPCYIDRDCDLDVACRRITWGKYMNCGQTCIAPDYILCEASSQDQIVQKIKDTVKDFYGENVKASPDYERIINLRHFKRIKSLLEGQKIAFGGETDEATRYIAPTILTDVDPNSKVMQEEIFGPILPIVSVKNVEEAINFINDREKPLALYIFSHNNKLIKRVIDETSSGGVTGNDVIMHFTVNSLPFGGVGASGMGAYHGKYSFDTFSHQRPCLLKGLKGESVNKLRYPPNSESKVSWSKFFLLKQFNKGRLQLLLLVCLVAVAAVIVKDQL
Sequence of human carbonyl reductase 1 (P16152 whole entry): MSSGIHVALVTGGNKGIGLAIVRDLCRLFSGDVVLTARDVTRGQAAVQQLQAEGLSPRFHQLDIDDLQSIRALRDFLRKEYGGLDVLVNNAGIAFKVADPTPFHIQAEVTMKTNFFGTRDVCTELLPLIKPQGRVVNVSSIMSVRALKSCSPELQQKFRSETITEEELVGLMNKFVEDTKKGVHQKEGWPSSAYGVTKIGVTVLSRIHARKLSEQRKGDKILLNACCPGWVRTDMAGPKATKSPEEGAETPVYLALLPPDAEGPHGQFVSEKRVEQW
Sequence of FOH-DH and GGOH-DH partially purified from stomach (P41682 whole entry): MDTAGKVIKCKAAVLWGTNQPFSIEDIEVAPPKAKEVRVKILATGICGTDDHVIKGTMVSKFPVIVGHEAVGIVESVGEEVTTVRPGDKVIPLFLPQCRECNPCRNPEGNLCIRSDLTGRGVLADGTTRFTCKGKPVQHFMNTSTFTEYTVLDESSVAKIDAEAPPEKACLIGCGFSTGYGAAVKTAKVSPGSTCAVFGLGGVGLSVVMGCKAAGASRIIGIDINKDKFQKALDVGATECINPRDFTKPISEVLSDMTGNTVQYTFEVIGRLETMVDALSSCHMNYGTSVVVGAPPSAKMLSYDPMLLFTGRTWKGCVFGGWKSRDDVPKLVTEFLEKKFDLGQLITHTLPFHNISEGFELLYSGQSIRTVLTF
Sequence of FOH-DH and GGOH-DH partially purified from lung (P41682 whole entry): as above
Sequence of dehydrogenase/reductase (SDR family) member 4 (Q9BTZ2 whole entry): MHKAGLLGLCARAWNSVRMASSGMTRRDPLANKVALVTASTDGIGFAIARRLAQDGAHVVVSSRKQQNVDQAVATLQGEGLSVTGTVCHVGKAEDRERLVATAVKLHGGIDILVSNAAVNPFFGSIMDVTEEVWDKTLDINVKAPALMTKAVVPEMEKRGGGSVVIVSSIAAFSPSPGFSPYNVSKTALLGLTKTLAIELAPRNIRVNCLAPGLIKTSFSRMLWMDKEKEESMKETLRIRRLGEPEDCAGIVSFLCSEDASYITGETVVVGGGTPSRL
Sequence of FOH-DH and GGOH-DH partially purified from liver (P06757 whole entry): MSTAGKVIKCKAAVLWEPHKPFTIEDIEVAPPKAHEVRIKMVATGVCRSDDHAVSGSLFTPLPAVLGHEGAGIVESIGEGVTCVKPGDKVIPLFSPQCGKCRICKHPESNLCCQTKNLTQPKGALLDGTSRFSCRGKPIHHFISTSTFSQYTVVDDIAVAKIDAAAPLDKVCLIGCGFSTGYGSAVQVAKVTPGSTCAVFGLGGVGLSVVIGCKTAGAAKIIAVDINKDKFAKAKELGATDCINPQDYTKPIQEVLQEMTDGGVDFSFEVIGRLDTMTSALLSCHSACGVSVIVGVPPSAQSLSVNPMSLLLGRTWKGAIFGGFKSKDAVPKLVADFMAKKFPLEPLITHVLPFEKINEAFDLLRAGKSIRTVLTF
Sequence of dicarbonyl-xylulose reductase (Q7Z4W1 whole entry): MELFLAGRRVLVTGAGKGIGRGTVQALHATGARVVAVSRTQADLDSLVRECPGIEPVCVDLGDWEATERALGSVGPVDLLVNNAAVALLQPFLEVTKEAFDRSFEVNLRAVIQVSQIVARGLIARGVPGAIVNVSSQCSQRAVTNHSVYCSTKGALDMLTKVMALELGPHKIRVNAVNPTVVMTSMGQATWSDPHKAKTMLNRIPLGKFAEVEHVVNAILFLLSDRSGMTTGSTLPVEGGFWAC
Sequence of FOH-DH and GGOH-DH partially purified from colon (P06757 2-376): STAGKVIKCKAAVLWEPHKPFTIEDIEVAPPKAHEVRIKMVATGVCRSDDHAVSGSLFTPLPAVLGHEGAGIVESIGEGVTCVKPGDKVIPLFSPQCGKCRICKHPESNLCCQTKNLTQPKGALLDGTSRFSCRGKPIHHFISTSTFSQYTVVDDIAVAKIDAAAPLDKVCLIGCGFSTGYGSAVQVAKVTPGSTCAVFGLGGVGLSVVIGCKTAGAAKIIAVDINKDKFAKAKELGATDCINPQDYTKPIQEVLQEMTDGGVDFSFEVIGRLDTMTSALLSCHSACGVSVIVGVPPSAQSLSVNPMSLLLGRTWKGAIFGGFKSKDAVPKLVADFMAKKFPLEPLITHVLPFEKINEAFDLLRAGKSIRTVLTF

For the compound `CC(C)=CCC/C(C)=C/CC/C(C)=C/CC/C(C)=C/C=O` [GGAL, geranylgeranial], the Km in data set [1] was 0.7 µM; at AKR1C15 [2], 0.2 µM; in data set [3], 2.1 µM; in [4], 0.2 to 0.5 µM; on AKR 1C3 it was 0.3 µM; on AKR 1C4, 1.1 µM. The values for the Km (with human AKR 1B10; in [8]) were 0.9 µM and 3.9 µM, respectively. Besides, in data set [1], the Vmax was determined as 4.2 mU/mg. Besides, the “kcat (value in parenthesis)” value on AKR 1A1 (setting [15]) is reported as “(0.8) ^b min^−1”; at AKR 1C1 (setting [15]) it was “(0.3) ^b min^−1”; at AKR 1C2 (setting [15]), “(0.4) ^b min^−1”; in the data set on human AKR 1B1 (setting [15]), “(0.3) ^b min^−1”. The figures for the kcat on AKR 1C3, at AKR 1C4 and with human AKR 1B10 were 0.06 s⁻¹, 0.0147 s⁻¹ and 0.125 s⁻¹, respectively. Besides, at AKR 1C3 (higher than for prostaglandin D2, best known endogenous substrate), the “kcat/Km value relative to that for prostaglandin D2” value amounted to 12 fold. Besides, the “reduction by the enzyme” value in data set [5], in [6] and in data set [7] was “hardly reduced” in each case.
As for `CC(C)=CCCC(C)=CCCC(C)=CC=O` [FAL, farnesal], the Km was 2 µM in data set [1]; 26 µM in data set [3]; 6 to 8 µM in data set [4]; 60 µM at AKR 1A1 (setting [16]); 3.1 µM at AKR 1C1 (setting [16]); 1.1 µM at AKR 1C2 (setting [16]). Further, the Km on AKR 1C3 was 2.6 µM; at AKR 1C4, 4.7 µM; at AKR1C15 [9] it was 5.6 µM; with human AKR 1B1 (setting [16]), 37 µM; in the data set on human AKR 1B10 it was 2.5 µM; in data set [8], 30 µM. For the same compound, the Vmax in [1] was found to be 12 mU/mg. Further, the kcat on AKR 1A1 (setting [16]) was 0.217 s⁻¹; on AKR 1C1 (setting [16]), 0.0283 s⁻¹; at AKR 1C2 (setting [16]), 0.03 s⁻¹; at AKR 1C3, 0.045 s⁻¹; at AKR 1C4, 0.0183 s⁻¹; with human AKR 1B1 (setting [16]) it was 0.45 s⁻¹. Also, in the data set on human AKR 1B10, the catalytic constant (kcat) is 0.383 s⁻¹. The “reduction by the enzyme” value in data set [5], in data set [6] and in data set [7] was “hardly reduced” each time.
Regarding `CC(C)=CCC/C(C)=C/CC/C(C)=C/CO` [FOH, Farnesol], the “Km values for substrate” value is 0.7 µM in data set [10], 29 µM in data set [11], 23 µM in data set [12] and 1.8 µM in data set [13]. For the same compound, the “metabolic rate from FOH to FA” value in the data set with HeLa cells (AKR1C15-overexpressed HeLa cells compared to the control cells) was “greatly decreased”. Further, in the data set on HeLa cells (control HeLa cells (vector alone), 20 μM [14C] FOH), the “metabolism of FOH” value is “rapidly converted into FA”.
Turning to `CC(C)=CCC/C(C)=C/CC/C(C)=C/CC/C(C)=C/CO` [GGOH, geranylgeraniol], the “Km values for substrate” value is 0.4 µM in data set [10], 0.8 µM in data set [11], 1.1 µM in [12] and 0.4 µM in data set [13]. In data set [14], the “metabolism of GGOH” value is “metabolized into GGA”.

The values are drawn from PMC3085043 (Chemico-biological interactions, 2010).
